From patent US8884013B2, “Polymorphs of Dasatinib, preparation methods and pharmaceutical compositions thereof” (Nan Jing Cavendish Bio-Engineering Technology Co., Ltd., priority 2010, dated 2014)
“Also recorded” adds a separate entry of the source.

What was measured:
Format in all cases: physicochemical
[1] = Photostability test (4500 ± 500 Lx); settings: for Content / Related substance / Appearance: 4500 ± 500lx
Source text: (§1) The conditions and methods of related substance test involved in this invention was in accordance with HPLC (Appendix VD of Chinese Pharmacopoeia, Vol. II, (2005)).
(§2) Chromatographic conditions and system applicability:
(§3) octadecylsilane bonded silica as the filler; 0.05 mol/L of potassium dihydrogen phosphate (adjusted to pH 2.5 by phosphoric acid)-methanol (45:55) as the mobile phase; detection wavelength was 230 nm; the number of theoretical plates should be not less than 2000, calculated according to the peak area of Dasatinib. The resolution of the peak of Dasatinib from the peaks of adjacent impurities should meet requirements.
(§4) Test Method: the sample was weight and dissolved into mobile phase to be the solution containing 0.5 mg per mL, and 20 μL of this solution was taken and injected into liquid chromatography. Chromatogram was recorded until it is 6 times as the retention time of the main peak.
The Polymorph I of Dasatinib monohydrate was distributed homogeneously in open petri dish with the thickness of the raw material not more than 5 mm, and the distance was adjusted to make illumination intensity at 4500±500 Lx. Sample was tested at the 5th and 10th day respectively and the results were contrasted with that of the Day 0. Results were listed in Tab. 2.
The Polymorph II of Dasatinib was distributed homogeneously in open petri dish with the thickness of the raw material not more than 5 mm, and the distance was adjusted to make illumination intensity at 4500±500 Lx. Sample was tested at the 5th and 10th day respectively and the results were contrasted with that of the Day 0. Results were listed in Tab. 7.

[2] = Stability of polymorph in the formulations (XRPD and relative substances after formulation); settings: for Change of relative substances of bulk drug in the formulation (in words): after formulation into capsules or tablets; for Change of crystalline form after being formulated: capsules or tablets, XRPD
Source text: Stability of Polymorph in the Formulations
The XRPD patterns of capsules and tablets respectively prepared in the Example 3 and Example 4 have been tested, and compared with XRPD characteristic peaks of Polymorph I of Dasatinib prepared by the Method A in the Example 1 in the present invention, as listed in the following table:
In addition, The relative substances of capsules and tablets respectively prepared in the Example 3 and Example 4 have been tested, and compared with those of Polymorph I of Dasatinib prepared by the Method A in the Example 1 in the present invention, as listed in the following table: […]

[3] = Accelerated test (40° C. and 75% relative humidity); settings: for Appearance / Content / Related substances: 40° C., 75% relative humidity; for Physical and chemical characteristic in accelerated test (in words): summary of six-month test
Source text: as §1, §2, §3, §4
The raw material of Polymorph I of Dasatinib was hermetically packed in plastic bags of polyethylene film and put in thermostatic and humidostatic incubator at 40±2° C. and 75±5% relative humidity for six months. Sample was tested at the end of the 1st, 2nd, 3rd and 6th month respectively and the results were contrasted with that of the zeroth month. Results were listed in Tab. 5.
The raw material of Polymorph II of Dasatinib was hermetically packed in plastic bags of polyethylene film and put in thermostatic and humidostatic incubator at 40±2° C. and 75±5% relative humidity for six months. Sample was tested at the end of the 1st, 2nd, 3rd and 6th month respectively and the results were contrasted with that of the zeroth month. Results were listed in Tab. 10.

Row | Structure (SMILES) | Content ([1]; day 0) [%] | Related substance ([1]; day 0) [%] | Content ([1]; day 5) [%] | Related substance ([1]; day 5) [%] | Content ([1]; day 10) [%] | Related substance ([1]; day 10) [%] | Change of content in photostability test (in words) ([1]; summary of 10-day test) | Change of related substances in photostability test (in words) ([1]; summary of 10-day test) | Change of relative substances of bulk drug in the formulation (in words) [2] | Change of crystalline form after being formulated [2] | Appearance ([3]; month 0) | Content ([3]; month 0) [%] | Related substances ([3]; month 0) [%] | Appearance ([3]; month 1) | Content ([3]; month 1) [%] | Related substances ([3]; month 1) [%] | Appearance ([3]; month 2) | Content ([3]; month 2) [%] | Related substances ([3]; month 2) [%] | Appearance ([3]; month 3) | also measured
1 | Cc1nc(Nc2ncc(C(=O)Nc3c(C)cccc3Cl)s2)cc(N2CCN(CCO)CC2)n1 [Polymorph II, N-(2-chloro-6-methylphenyl)-2-[[6-[4-(2-hydroxyethyl)-1-piperazinyl]-2-methyl-4-pyrimidyl]amino]-5-thiazolformamide] | 99.8 | 0.06 | 99.6 | 0.22 | 99.3 | 0.36 | of some drop | increased slightly | didn't increase | no substantially change | white powder | 99.8 | 0.06 | white powder | 99.7 | 0.07 | white powder | 99.8 | 0.08 | white powder | Change of appearance in photostability test (in words) ([1]; summary of 10-day test): no obvious change; Content ([3]; month 3): 99.6%; Related substances ([3]; month 3): 0.07%; Appearance ([3]; month 6): white powder; Content ([3]; month 6): 99.6%; Related substances ([3]; month 6): 0.08%; Physical and chemical characteristic in accelerated test (in words) [3]: of relative stability
2 | Cc1nc(Nc2ncc(C(=O)Nc3c(C)cccc3Cl)s2)cc(N2CCN(CCO)CC2)n1 [Polymorph I, N-(2-chloro-6-methylphenyl)-2-[[6-[4-(2-hydroxyethyl)-1-piperazinyl]-2-methyl-4-pyrimidyl]amino]-5-thiazolformamide] | 99.7 | 0.07 | 99.6 | 0.21 | 99.4 | 0.34 | of some drop | increased slightly | didn't increase; also recorded: no significantly changes | no substantially change; also recorded: substantially no change | white powder | 99.7 | 0.07 | white powder | 99.6 | 0.07 | white powder | 99.6 | 0.08 | white powder | Appearance ([1]; day 0): white powder; Appearance ([1]; day 5): white powder; Appearance ([1]; day 10): white powder; Relative substances ([2]; bulk drug vs capsules and tablets of Examples 3 and 4): 0.07%; Content ([3]; month 3): 99.6%; Related substances ([3]; month 3): 0.08%; Appearance ([3]; month 6): white powder; Content ([3]; month 6): 99.5%; Related substances ([3]; month 6): 0.09%; Physical and chemical characteristic in accelerated test (in words) [3]: relatively stable
